Assay results reported in patent US8946282B2, “Indolin-2-one derivatives as protein kinase inhibitors” (Annji Pharmaceutical Co., Ltd., priority 2012, dated 2015).

Tests used:
aurora B = aurora B (Homo sapiens, UniProt Q96GD4); experiment: radioisotope-based P81 filter-binding assay, aurora B kinase; type: biochemical; settings: for IC50: averaged from two independent dose-response curves, read-out: Enzyme assay IC50 Aur B; for inhibition at 1 µM: compound at 1.0 μM, mean values (n=2), read-out: percent inhibition of enzyme catalytic activity, Aur B (numbers in parentheses)
Sequence of aurora B (Q96GD4 whole entry): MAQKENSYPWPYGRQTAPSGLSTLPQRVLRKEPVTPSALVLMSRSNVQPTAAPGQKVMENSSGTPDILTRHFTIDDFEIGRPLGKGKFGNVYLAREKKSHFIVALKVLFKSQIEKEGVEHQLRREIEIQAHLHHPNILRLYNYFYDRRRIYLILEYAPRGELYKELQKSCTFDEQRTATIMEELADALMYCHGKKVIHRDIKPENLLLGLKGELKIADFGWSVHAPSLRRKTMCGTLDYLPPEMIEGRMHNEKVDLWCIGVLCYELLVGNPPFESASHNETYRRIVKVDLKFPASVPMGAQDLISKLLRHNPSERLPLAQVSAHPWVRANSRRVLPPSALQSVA
Description: (§1) Compounds of formula (I)-(IV) were evaluated for abilities in inhibiting protein kinases aurora B and FLT-3 activity using radioisotope-based P81 filter-binding assay (Table 1).

FLT-3 = molecular target: T1, FLT-3 (Homo sapiens, UniProt P36888); experiment: radioisotope-based P81 filter-binding assay, FLT-3 kinase; type: biochemical; settings: for IC50: averaged from two independent dose-response curves, read-out: Enzyme assay IC50 FLT-3; for inhibition at 1 µM: compound at 1.0 μM, mean values (n=2), read-out: percent inhibition of enzyme catalytic activity, FLT-3 (numbers in parentheses)
T1 sequence (P36888 27-993): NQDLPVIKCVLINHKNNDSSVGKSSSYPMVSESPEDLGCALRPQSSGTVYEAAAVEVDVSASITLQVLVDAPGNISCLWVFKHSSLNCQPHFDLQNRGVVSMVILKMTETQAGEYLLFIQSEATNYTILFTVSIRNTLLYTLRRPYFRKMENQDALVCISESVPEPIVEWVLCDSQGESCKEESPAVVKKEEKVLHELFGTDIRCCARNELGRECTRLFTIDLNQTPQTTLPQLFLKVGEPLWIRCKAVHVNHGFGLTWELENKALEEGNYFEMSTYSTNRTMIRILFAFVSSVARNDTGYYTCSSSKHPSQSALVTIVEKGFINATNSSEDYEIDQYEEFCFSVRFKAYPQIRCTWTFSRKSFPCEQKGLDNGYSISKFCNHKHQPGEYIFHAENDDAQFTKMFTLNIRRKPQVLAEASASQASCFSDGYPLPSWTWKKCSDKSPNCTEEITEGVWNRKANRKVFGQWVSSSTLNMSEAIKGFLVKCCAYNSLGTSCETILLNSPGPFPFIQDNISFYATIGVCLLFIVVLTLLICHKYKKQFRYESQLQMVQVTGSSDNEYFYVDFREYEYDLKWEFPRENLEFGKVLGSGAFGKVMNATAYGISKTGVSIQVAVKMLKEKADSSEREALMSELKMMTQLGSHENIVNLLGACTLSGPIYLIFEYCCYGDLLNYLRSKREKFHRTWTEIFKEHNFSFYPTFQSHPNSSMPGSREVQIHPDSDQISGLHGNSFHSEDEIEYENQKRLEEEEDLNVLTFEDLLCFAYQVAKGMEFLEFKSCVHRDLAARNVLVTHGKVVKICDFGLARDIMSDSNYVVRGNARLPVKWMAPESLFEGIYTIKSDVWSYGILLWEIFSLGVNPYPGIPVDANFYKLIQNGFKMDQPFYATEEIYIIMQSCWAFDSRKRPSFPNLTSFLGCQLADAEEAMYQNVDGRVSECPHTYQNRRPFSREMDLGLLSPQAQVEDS
Description: as §1

CN1CCN(C(=O)Nc2ccc3c(c2)NC(=O)/C3=C\c2ccc[nH]2)C1=O [D80, (Z)—N-(3-((1H-pyrrol-2-yl)methylene)-2-oxoindolin-6-yl)-3-methyl-2-oxoimidazolidine-1-carboxamide]
IC50 (aurora B): 1100 nM
IC50 (FLT-3): 70.6 nM
melting point: 267 to 272 °C (dec.)

O=C1Nc2cc(NC(=O)N3CCN(c4cccc(Cl)c4)C3=O)ccc2/C1=C/c1ccc[nH]1 [D85, (Z)—N-(3-((1H-pyrrol-2-yl)methylene)-2-oxoindolin-6-yl)-3-(3-chlorophenyl)-2-oxoimidazolidine-1-carboxamide]
IC50 (aurora B): 14.3 nM
IC50 (FLT-3): 1790 nM
melting point: > 300 °C

Cc1[nH]c(/C=C2\C(=O)Nc3cc(NC(=O)NC(=O)c4ccc([N+](=O)[O-])cc4)ccc32)c(C)c1C(=O)O [D38, (Z)-2,4-dimethyl-5-((6-(3-(4-nitrobenzoyl)ureido)-2-oxoindolin-3-ylidene)methyl)-1H-pyrrole-3-carboxylic acid]
IC50 (aurora B): 1.2 nM
IC50 (FLT-3): > 1000 nM
melting point: 293 to 298 °C (dec.)

O=C1Nc2cc(NC(=O)c3cccn(CCO)c3=O)ccc2/C1=C/c1ccc[nH]1 [D117, (Z)—N-(3-((1H-pyrrol-2-yl)methylene)-2-oxoindolin-6-yl)-1-(2-hydroxyethyl)-2-oxo-1,2-dihydropyridine-3-carboxamide]
IC50 (aurora B): 32.5 nM
IC50 (FLT-3): 612 nM
melting point: 298 °C (dec.)

COc1ccc(-c2c[nH]cc(C(=O)Nc3ccc4c(c3)NC(=O)/C4=C\c3[nH]c(C)c(C(=O)N4CCN(C)CC4)c3C)c2=O)cc1 [D154]
IC50 (aurora B): 135 nM
IC50 (FLT-3): 1.2 nM
melting point: 235 °C (dec.)

O=C(NC(=O)c1ccccc1F)Nc1ccc2c(c1)NC(=O)/C2=C\c1ccc[nH]1 [D52, (Z)—N-(3-((1H-pyrrol-2-yl)methylene)-2-oxoindolin-6-ylcarbamoyl)-2-fluorobenzamide]
IC50 (aurora B): 6.5 nM
IC50 (FLT-3): > 1000 nM
melting point: 276 to 281 °C (dec.)

COc1ccc(/C=C2/C(=O)Nc3cc(NC(=O)NC(=O)c4ccc(OC)cc4)ccc32)cc1 [D19, (E)-4-methoxy-N-(3-(4-methoxybenzylidene)-2-oxoindolin-6-yl-carbamoyl)benzamide]
inhibition at 1 µM (aurora B): 55.9%
inhibition at 1 µM (FLT-3): 43.2%
melting point: 274 to 279 °C (dec.)

Cc1ccc(N2CCN(C(=O)Nc3ccc4c(c3)NC(=O)/C4=C\c3ccc[nH]3)C2=O)cc1 [D92, (Z)—N-(3-((1H-pyrrol-2-yl)methylene)-2-oxoindolin-6-yl)-2-oxo-3-p-tolylimida-zolidine-1-carboxamide]
IC50 (aurora B): 19.3 nM
IC50 (FLT-3): 223 nM
melting point: > 300 °C

COc1ccc(C(=O)NC(=O)Nc2ccc3c(c2)NC(=O)C3=Cc2ccco2)cc1 (stereo in doubt) [D23, (E)-N-(3-(furan-2-ylmethylene)-2-oxoindolin-6-ylcarbamoyl)-4-methoxybenzamide]
inhibition at 1 µM (aurora B): 44%
inhibition at 1 µM (FLT-3): 15.4%
melting point: 278 to 283 °C (dec.)

COc1ccc(N2CCN(C(=O)Nc3ccc4c(c3)NC(=O)/C4=C\c3[nH]c(C)c(C(=O)O)c3C)C2=O)cc1 [D95, (Z)-5-((6-(3-(4-methoxyphenyl)-2-oxoimidazolidine-1-carboxamido)-2-oxoindolin-3-ylidene)methyl)-2,4-dimethyl-1H-pyrrole-3-carboxylic acid]
IC50 (aurora B): 3.7 nM
IC50 (FLT-3): 39.4 nM
melting point: 267 to 272 °C (dec.)

COc1ccc(C(=O)NC(=O)Nc2ccc3c(c2)NC(=O)/C3=C\c2cccs2)cc1 [D22, (Z)-4-methoxy-N-(2-oxo-3-(thiophen-2-ylmethylene)indolin-6-ylcarbamoyl)benzamide]
IC50 (aurora B): 21.5 nM
IC50 (FLT-3): > 1000 nM
melting point: 262 to 267 °C (dec.)

COc1ccc(C(=O)NC(=O)Nc2ccc3c(c2)NC(=O)/C3=C\c2[nH]c(C)c(C(=O)O)c2C)c(F)c1 [D57, (Z)-5-((6-(3-(2-fluoro-4-methoxybenzoyl)ureido)-2-oxoindolin-3-ylidene)methyl)-2,4-dimethyl-1H-pyrrol-3-carboxylic acid]
IC50 (aurora B): 2.3 nM
IC50 (FLT-3): 111 nM
melting point: 295 to 300 °C (dec.)

COc1ccc(C(=O)NC(=O)Nc2ccc3c(c2)NC(=O)/C3=C/c2ccc(Cl)cc2)cc1 [D18, (E)-N-(3-(4-chlorobenzylidene)-2-oxoindolin-6-ylcarbamoyl)-4-methoxybenz-amide]
inhibition at 1 µM (aurora B): 12.8%
inhibition at 1 µM (FLT-3): 6.1%
melting point: 278 to 283 °C (dec.)

Cc1[nH]c(/C=C2\C(=O)Nc3cc(NC(=O)c4c[nH]cc(-c5cc(F)cc(F)c5)c4=O)ccc32)c(C)c1CCC(=O)O [D148, (Z)-3-(5-((6-(5-(3,5-difluorophenyl)-4-oxo-1,4-dihydropyridine-3-carboxamido)-2-oxoindolin-3-ylidene)methyl)-2,4-dimethyl-1H-pyrrol-3-yl)propanoic acid]
IC50 (aurora B): 6.7 nM
IC50 (FLT-3): 50.4 nM
melting point: > 300 °C

CCOC(=O)c1c(C)[nH]c(/C=C2\C(=O)Nc3cc(NC(=O)NC(=O)c4ccc(OC)cc4F)ccc32)c1C [D62, (Z)-ethyl-5-((6-(3-(2-fluoro-4-methoxybenzoyl)ureido)-2-oxoindolin-3-ylidene)methyl)-2,4-dimethyl-1H-pyrrole-3-carboxylate]
IC50 (aurora B): 1720 nM
IC50 (FLT-3): 2980 nM
melting point: 278 to 283 °C (dec.)

COc1ccc(C(=O)NC(=O)Nc2ccc3c(c2)NC(=O)/C3=C\c2[nH]c(C)c(C(=O)N3CCOCC3)c2C)c(F)c1 [D66, (Z)—N-(3-((3,5-dimethyl-4-(morpholine-4-carbonyl)-1H-pyrrol-2-yl)methylene)-2-oxoindolin-6-ylcarbamoyl)-2-fluoro-4-methoxybenzamide]
IC50 (aurora B): 16.8 nM
IC50 (FLT-3): 79.5 nM
melting point: 273 to 278 °C (dec.)

O=C1Nc2cc(NC(=O)N3CCN(C4CC4)C3=O)c(F)cc2/C1=C/c1ccc[nH]1 [D82, (Z)—N-(3-((1H-pyrrol-2-yl)methylene)-5-fluoro-2-oxoindolin-6-yl)-3-cyclopropyl-2-oxoimidazolidine-1-carboxamide]
IC50 (aurora B): 10.7 nM
IC50 (FLT-3): 3330 nM
melting point: > 300 °C

COc1ccc(C(=O)NC(=O)Nc2ccc3c(c2)NC(=O)/C3=C\c2[nH]c(C)c(CC(=O)O)c2C)cc1 [D46]
IC50 (aurora B): 1.8 nM
IC50 (FLT-3): 31.7 nM
melting point: 240 to 245 °C (dec.)

COc1ccc(C(=O)NC(=O)Nc2ccc3c(c2)NC(=O)/C3=C/c2ccccc2)cc1 [D17, (E)-N-(3-benzylidene-2-oxoindolin-6-ylcarbamoyl)-4-methoxybenzamide]
inhibition at 1 µM (aurora B): 61.2%
inhibition at 1 µM (FLT-3): 34.4%
melting point: 277 to 282 °C (dec.)

O=C1Nc2ccc(NC(=O)c3cccn(-c4ccc(F)cc4)c3=O)cc2/C1=C/c1ccc[nH]1 [D104, (Z)—N-(3-((1H-pyrrol-2-yl)methylene)-2-oxoindolin-5-yl)-1-(4-fluorophenyl)-2-oxo-1,2-dihydropyridine-3-carboxamide]
IC50 (aurora B): > 1000 nM
IC50 (FLT-3): > 1000 nM
melting point: > 300 °C

COc1ccc(C(=O)NC(=O)Nc2ccc3c(c2)NC(=O)/C3=C\c2[nH]c(C)c(CCC(=O)N3CCN(C)CC3)c2C)c(F)c1 [D65, (Z)—N-(3-((3,5-dimethyl-4-(3-(4-methylpiperazin-1-yl)-3-oxopropyl)-1H-pyrrol-2-yl)methylene)-2-oxoindolin-6-ylcarbomoyl)-2-fluoro-4-methoxybenzamide]
IC50 (aurora B): 18.4 nM
IC50 (FLT-3): 41.4 nM
melting point: 229 to 234 °C (dec.)
